Six molecules from patent EP4324461A1, “(E)-N-CINAMOYLAMINOALKANOLES WITH MELANOGENESIS INHIBITORY ACTIVITY” (UNIWERSYTET JAGIELLONSKI, priority 2022, dated 2024) can be followed below.

The test system of one data set is Fibroblasts (BJ). The experiment in a line: Safety, LDH test in fibroblasts. It is filed as cell-based. Conditions: 48 hours, positive control Triton X-100. Here is the method: In order to test the safety of the compounds, both normal human cells were used: keratinocytes (HaCaT), fibroblasts (BJ), primary melanocytes that occur in the skin, as well as human cancer cells: the hepatocarcinoma line HepG2 and the neuroblastoma line SH-SY5Y, which are considered a model for the assessment of hepatocytotoxicity and neurocytotoxicity. The concentrations of the tested compounds in the range of 250-100 µM were used in the studies. The cell lines used in the research were purchased from the American Type Culture Collection (ATCC) and were cultured in media recommended by the manufacturer with the addition of FBS and antibiotics in an incubator ensuring appropriate culture conditions, i.e. humidity, temperature and CO2 concentration. Cells were seeded into multiwell plates and incubated with the test compounds for 48 hours. After this time, MTT and LDH tests were performed to assess cell viability. The MTT test is based on the ability to transform the substrate: [3-(4,5-dimethyl-2-thiazolyl)-2,5-diphenyl-2H-tetrazolium bromide into a colored product only by living cells. The absorbance at 570 nm, which corresponds to the absorption maximum for the product, is directly proportional to cell viability. The LDH test is based on testing the activity of the enzyme lactate dehydrogenase in the culture medium, which is released from cells as a result of damage to the cell membrane, e.g. as a result of cell death. Triton X-100 was used as a positive control in the test. The determination is colorimetric, the substrate is transformed by the released enzyme into a colored product, an increase in absorbance indicates a larger amount of the released enzyme, and thus confirms greater damage to cell membranes. Tables 7 and 8 present the results obtained, which correspond to the viability of cells incubated with the compounds in relation to the viability of cells constituting a control sample, i.e. incubated with the solvent (DMSO) at the same concentration as in the case of the groups tested in the MTT test or in relation to the results obtained for the Triton X-100 positive control in the LDH test. They indicate that the compounds are safe at the concentrations tested. Table 7. Viability of tested normal human cell lines: keratinocytes (HaCaT), fibroblasts (BJ) and primary melanocytes after incubation with the tested compounds - determination in the MTT test (% of solvent control ± SD) and LDH (percentage of positive control - Triton X-100.

The test system of another data set is E. coli WP2. The experiment in a line: Ames microplate test, E. coli WP2.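 Also: bacteria treated 90 min at 37 °C in 24-well plates, then indicator medium dispensed to 384-well plates and incubated 48 h before yellow-well counting.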
Data set [1] relates to Balb/c 3T3 murine fibroblast cell line. The data set can be described thus: Phototoxicity in Balb/c 3T3 fibroblasts (neutral red uptake). Particulars: for phototoxic potential: Balb/c 3T3, neutral red uptake; for PIF: photoirritation factor: ratio of IC50 of unirradiated to irradiated cells; for cytotoxicity towards the mouse fibroblasts: with and without exposure to UVA. Here is the method:
Balb/c 3T3 cells, which are an immortalized murine fibroblast cell line, were purchased at ATTC and cultured in the medium recommended by the manufacturer (DMEM GlutaMAX, newborn calf serum (BCS), antibiotics). After multiplication, cells were placed in 96-well plates, which were incubated for 24 hours, after which all wells of the plates were washed with 150 µL of balanced salt solution (HBSS). Then, after drying the plates, 100 µL of a solution of the tested compounds in HBSS with 2% FBS was added to each well and incubated for an hour. After this time, some of the plates were irradiated using the Suntest CPS+ sunlight simulator from Atlas with appropriate filters cutting off radiation with a wavelength <320 nm (UVA radiation intensity 5 J/cm^2). The second part of the plates was placed in radiation-free conditions for the same period of time. After the exposure time, the liquid was removed from all plates and the wells were washed twice with 150 µL of HBSS, then supplemented with fresh culture medium and incubated for 24 hours in an incubator (37 °C, 5% CO2). Viability was assessed in the neutral red uptake test, which is based on the ability of the dye to penetrate only into living cells. Dye uptake was confirmed by absorbance measurement at 540 nm. […] The appropriate coefficients were also calculated: mean phototoxic effect (MPE) and photoirritation factor (PIF). PIF is the ratio of the IC50 values of unirradiated to irradiated cells, while MPE is based on the comparison of concentration-response curves. […]

Data set [2] concerns the target T1, tyrosinase released from B16-F10 cells (Mus musculus, UniProt P11344).
T1 construct: endogenous in cells; host or cells: B16-F10 murine melanoma cells, α-MSH stimulated, Triton X-100 lysate
The data set can be described thus: Inhibition of tyrosinase activity released from B16-F10 cells. Particulars: α-MSH induced cells, lysate, L-DOPA 0.5 mM. The class given is cell-based, murine. Here is the method: 50,000 cells were placed in each well of a 24-well plate (in F10-Ham medium, 1% FBS). After 24 h of culture, the tested compounds were added in fresh medium (DMEM, 1% FBS), with an additional 5 µM of α-melanocorticotropic hormone (α-MSH) in the medium to induce melanogenesis. Three wells on the plate constituted a control sample without the melanogenesis inducer (α-MSH) and without the tested compounds. After 24 hours of incubation under these conditions, the medium was removed and the cells were washed twice with PBS. 100 µL of lysis buffer composed of 90 µL of 50 mM potassium phosphate buffer, 5 µL of 0.1 mM phenylmethylsulfonyl fluoride and 5 µL of 1% Triton X-100 were added to the wells. The plates were placed at -80 °C for 30 minutes. Cell lysates were then centrifuged for 30 min (4 °C, 12,000 rpm), and then 80 µL of the supernatant was transferred to 96-well plates. […] After a 30-minute incubation, the absorbance was measured at 475 nm using a microplate reader. The percentage of inhibition of tyrosinase activity was calculated using the formula: [(AC -AT)/AC] × 100, where AC - is the absorbance of the negative control (from wells in which cells were cultured without the tested compounds), AT - is the absorbance of the sample from wells in which cells were cultured in the presence of the test compound.

T1 sequence (P11344 19-533): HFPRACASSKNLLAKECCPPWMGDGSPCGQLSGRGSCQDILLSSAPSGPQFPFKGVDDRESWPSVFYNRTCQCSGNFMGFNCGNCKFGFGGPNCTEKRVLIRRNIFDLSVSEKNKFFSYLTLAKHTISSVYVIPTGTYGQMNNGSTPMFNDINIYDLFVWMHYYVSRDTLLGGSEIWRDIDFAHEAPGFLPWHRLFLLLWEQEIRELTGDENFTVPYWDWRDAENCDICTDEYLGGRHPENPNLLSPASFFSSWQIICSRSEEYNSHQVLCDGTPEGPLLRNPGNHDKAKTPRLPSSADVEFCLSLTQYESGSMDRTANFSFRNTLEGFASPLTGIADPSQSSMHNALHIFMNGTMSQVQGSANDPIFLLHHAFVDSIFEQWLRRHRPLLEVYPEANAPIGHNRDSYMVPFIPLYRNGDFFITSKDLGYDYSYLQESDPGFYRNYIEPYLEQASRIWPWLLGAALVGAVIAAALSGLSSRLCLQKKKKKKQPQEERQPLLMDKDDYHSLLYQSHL
Protocol for E. coli WP2: The study used the Ames microplate test (Ames MPF™ Penta 2 by Xenometrix, Allschwil, Switzerland). Growth medium, exposure medium, indicator medium, positive controls, hepatic microsomal fraction, NADP, glucose-6-phosphate, Salmonella typhimurium and Escherichia coli strains were components of the purchased experimental kit. Bacteria were grown overnight in growth medium. They were then exposed to the test compound at the appropriate concentration in exposure medium without or with the rat microsomal fraction S9 in 24-well plates for 90 min at 37 °C with shaking. Then, indicator medium was added to the wells and pipetted into 384-well plates, which were incubated for 48 hours at 37 °C without shaking. Results were assessed by counting the wells in which the medium turned yellow for each experimental condition.

Consider `O=C(/C=C/c1ccc(Cl)cc1)NCCO` [H-427/21, (2E)-3-(4-chlorophenyl)-N-(2-hydroxyethyl)prop-2-enamide], for which the “Fibroblasts (BJ) LDH” value was 2.75 percentage of positive control in the data set on Fibroblasts (BJ) (100 µM), 5.92 percentage of positive control in the data set on Fibroblasts (BJ) (150 µM), 9.00 percentage of positive control with Fibroblasts (BJ) (200 µM) and 17.32 percentage of positive control in the data set with Fibroblasts (BJ) (250 µM).

In the case of `O=C(/C=C/c1ccccc1)NCCCCCCO` [H-425/21, (E)-N-(6-hydroxyhexyl)cinnamic acid amide], the “Increase in the number of yellow wells compared to the reference level” value (shortened to “Increase in the number of yellow wells”) with E. coli WP2 (0.5 mM, +S9) stood at 0.75; in the data set with E. coli WP2 (0.5 mM, without S9) it was 0.17; with E. coli WP2 (1.0 mM, +S9), 0.83; in the data set with E. coli WP2 (1.0 mM, without S9), 0.67; with E. coli WP2 (2.0 mM, +S9) it was 0.75; in the data set on E. coli WP2 (2.0 mM, without S9), 1.00.

For the molecule `O=C(/C=C/c1ccc(Cl)cc1)NCCCCCO` [Compound A-111, (2E)-3-(4-chlorophenyl)-N-(5-hydroxypentyl)prop-2-enamide], in data set [1], the phototoxic potential result is “do not have phototoxic potential”. The PIF result in data set [1] is reported as “No phototoxicity”. Further, the “cytotoxicity towards the mouse fibroblasts” value in data set [1] was “devoid of cytotoxicity”. In data set [2], the “inhibition of tyrosinase activity released from B16-F10 cells” value is reported as “inhibit the activity of tyrosinase released from B16-F10 cells”. In addition, the “Increase in the number of yellow wells” value is on record as 0.62 in the data set on E. coli WP2 (0.5 mM, +S9); 1.46 in the data set on E. coli WP2 (0.5 mM, without S9); 0.71 with E. coli WP2 (1.0 mM, +S9); 1.10 in the data set on E. coli WP2 (1.0 mM, without S9); 0.98 in the data set with E. coli WP2 (2.0 mM, +S9); 1.10 in the data set with E. coli WP2 (2.0 mM, without S9). Besides, the “Fibroblasts (BJ) LDH” value in the data set with Fibroblasts (BJ) (100 µM) was 5.25 percentage of positive control; with Fibroblasts (BJ) (150 µM) it was 5.37 percentage of positive control; with Fibroblasts (BJ) (200 µM) it was 8.43 percentage of positive control; in the data set on Fibroblasts (BJ) (250 µM), 14.90 percentage of positive control.

`Cc1ccc(/C=C/C(=O)NCCCCCO)cc1` [H-415/21, (2E)-N-(5-hydroxypentyl)-3-(4-methylphenyl)prop-2-enamide]: the “Increase in the number of yellow wells” value in the data set with E. coli WP2 (0.5 mM, without S9) is recorded as 0.64; in the data set with E. coli WP2 (1.0 mM, without S9) it was 0.40; in the data set with E. coli WP2 (2.0 mM, without S9), 0.95. Further, the “Fibroblasts (BJ) LDH” value is listed as 8.81 percentage of positive control in the data set with Fibroblasts (BJ) (100 µM), 8.75 percentage of positive control in the data set with Fibroblasts (BJ) (150 µM), 9.82 percentage of positive control in the data set with Fibroblasts (BJ) (200 µM) and 16.63 percentage of positive control with Fibroblasts (BJ) (250 µM).

`O=C(/C=C/c1ccccc1)NCCCCCO` [Compound A-133, (2E)-N-(5-hydroxypentyl)-3-phenylprop-2-enamide]: the phototoxic potential result in data set [1] is recorded as “do not have phototoxic potential”. Also, the PIF entry in data set [1] is “No phototoxicity”. In addition, the “cytotoxicity towards the mouse fibroblasts” value in data set [1] is “devoid of cytotoxicity”. The “Increase in the number of yellow wells” value came to 0.27 in the data set on E. coli WP2 (0.5 mM, +S9); 0.73 in the data set with E. coli WP2 (0.5 mM, without S9); 0.44 in the data set with E. coli WP2 (1.0 mM, +S9); 0.37 with E. coli WP2 (1.0 mM, without S9); 0.53 with E. coli WP2 (2.0 mM, +S9); 1.10 in the data set on E. coli WP2 (2.0 mM, without S9). For the same molecule, the “Fibroblasts (BJ) LDH” value in the data set with Fibroblasts (BJ) (100 µM) was 5.00 percentage of positive control; in the data set with Fibroblasts (BJ) (150 µM) it was 4.47 percentage of positive control; with Fibroblasts (BJ) (200 µM), 14.72 percentage of positive control; with Fibroblasts (BJ) (250 µM), 28.31 percentage of positive control.

As for `O=C(/C=C/c1ccc(Cl)cc1)NCCCO` [H-330/21, (2E)-3-(4-chlorophenyl)-N-(3-hydroxypropyl)prop-2-enamide], the “Fibroblasts (BJ) LDH” value with Fibroblasts (BJ) (100 µM) is 4.74 percentage of positive control; with Fibroblasts (BJ) (150 µM), 6.50 percentage of positive control; with Fibroblasts (BJ) (200 µM), 14.25 percentage of positive control; in the data set with Fibroblasts (BJ) (250 µM), 28.74 percentage of positive control.
